Assay results as given in patent publication US12134663B2, “Cationic peptides for activating Lck” (Interk Peptide Therapeutics Limited, priority 2018, dated 2024).
Where no end group is shown, it is not given here. [ ]: non-standard residue; d: D form.

How the values were obtained:
[1] = tested on: wild-type Jurkat cells; assay: IL-2R alpha (CD25) expression in PMA/ionomycin stimulated Jurkat cells; type: cell-based, human; details: PMA and ionomycin stimulated; peptide 2.5 μM, 96 hours; cell lysates
Procedure: In brief, wild-type Jurkat cells (1×10^6 cells) were cultured in standard RPMI medium and 10% foetal calf serum as above and either not stimulated or stimulated with PMA (50 ng/ml) and ionomycin for a period of 96 hours. Cells were exposed to the test peptides (2.5 μM conc.) listed in FIG. 10 for the entire 96 hour culture period, and IL-2R alpha levels were determined in cell lysates using a standard commercial ELISA format as described above.

[2] = tested on: wild-type Jurkat cells; assay: IL-12 secretion in stimulated wild-type Jurkat cells (ELISA); type: cell-based, human; details: biotinylated anti-CD3, anti-CD28, avidin; 48 h exposure
Procedure: (§1) The ability of Lck activating polypeptides to alter IL-12 secretion was examined. In brief, wild-type Jurkat cells (an immortalised line of human T lymphocyte cells) were stimulated by exposure to biotinylated anti-CD3 antibody in the presence of anti-CD28 antibody and avidin. During the culture period (48 hours) cells were exposed to test polypeptides. Cell supernatant was assayed for IL-12 at the end of 48 hours using a standard commercially available ELISA kit as described above.
In brief, cells were seeded at 1 million cells per well (12 well plate, 2 mL volume) and stimulated with Biotin-CD3, CD28, and avidin (5:5:1.25 μg). The cells were then treated with IK14800 (SEQ ID NO: 24), IK15800 (SEQ ID NO: 58), IK14804 (SEQ ID NO: 65) and IK15804 (SEQ ID NO: 66). The cells were then incubated for 48 hours at 37° C. The supernatants (100 uL, n=3), were then analyzed for IL-12 content.
In brief, wild-type Jurkat cells (am immortalised line of human T lymphocyte cells) were stimulated by exposure to biotinylated anti-CD3 antibody in the presence of anti-CD28 antibody and avidin. Cells were seeded at 1 million cells per well (12 well plate, 2 mL volume) and stimulated with Biotin-anti-CD3, anti-CD28, and avidin (5:5:1.25 μg). Cells were treated with the test peptides and then incubated for 48 hours at 37° C. The supernatants (100 ul, n=3), were then analysed for IL-2 and IL-12 content. […]

[3] = tested on: wild-type Jurkat cells; assay: IL-2 secretion in stimulated wild-type Jurkat cells (ELISA); type: cell-based, human; details: biotinylated anti-CD3, anti-CD28, avidin; 48 h exposure
Procedure: as §1, with “In” for “The ability of Lck activating polypeptides to alter IL-12 secretion was examined. In”, “(48 hours or 72” for “(48”, “IL-2” for “IL-12”, “48 or 72” for “48”
In brief, cells were seeded at 1 million cells per well (12 well plate, 2 mL volume) and stimulated with Biotin-CD3, CD28, and avidin (5:5:1.25 μg). The cells were then treated with IK14804, and then incubated for 48 hours at 37° C. The supernatant (100 uL, n=3), was then analyzed for IL-2 content.
In brief, wild-type Jurkat cells (am immortalised line of human T lymphocyte cells) were stimulated by exposure to biotinylated anti-CD3 antibody in the presence of anti-CD28 antibody and avidin. Cells were seeded at 1 million cells per well (12 well plate, 2 mL volume) and stimulated with Biotin-anti-CD3, anti-CD28, and avidin (5:5:1.25 μg). Cells were treated with the test peptides and then incubated for 48 hours at 37° C. The supernatants (100 ul, n=3), were then analysed for IL-2 and IL-12 content. During the culture period (48 hours) cells were exposed to test polypeptide RSKAKNPLYR-(2Adod)4-NH2 (SEQ ID NO: 128). Cell supernatant was assayed for IL-2 and IL-12 at the end of 48 hours using standard commercially available ELISA kit as described above.

[4] = tested on: isolated human CD4+ T cells; assay: IL-2 secretion from isolated stimulated CD4+ T cells; type: cell-based; details: anti-CD3 anti-CD28 Dynabeads, 0-1.25 μM, 24 hours; data not shown
Procedure: In brief, CD4+ and CD8+ T cells were isolated and immuno-magnetically separated from healthy human PBMCs. Levels of IL-2 were examined following anti-CD3 and anti-CD28 stimulation for 48 hours in the presence the Lck activating fusion polypeptide RSKAKNPLY-RRRRRRRRR (SEQ ID NO: 24).
The effect of Lck activating polypeptides on IL-2 secretion from CD4+ T cells in a stimulated CD4+ T cell assay was also examined. In brief, Isolated CD4+ T cells were stimulated with anti-CD3 anti-CD28 Dynabeads™ and cultured together with the Lck activating polypeptides RRRRRRRRR (SEQ ID NO: 6, “IK00900”) and RSKAKNPLY-RRRRRRRRR (SEQ ID NO: 24, “IK14800”), over a 5-concentration range plus vehicle control (0-1.25 μM) for 24 hours after which supernatants were assessed for IL-2 and IFN-γ by ELISA.

[5] = tested on: anti-CD3 stimulated PBMCs; assay: IL-12p70 secretion in anti-CD3 stimulated PBMCs; type: cell-based, human; details: 24 hours
Procedure: The ability of Lck activating polypeptides to alter IL-12 (IL-12p70) secretion was examined further. In brief, anti-CD3 stimulated PBMCs were cultured together with the Lck activating polypeptides RVKVKVVVV-RRRRRRRRR (SEQ ID NO: 58, “IK15800”), RSKAKNPLY-RRRRRRRRR (SEQ ID NO: 24, “IK14800”), and RVKVKVVVV-RRRRRRRRR (SEQ ID NO: 58) and RSKAKNPLY-RRRRRRRRR (SEQ ID NO: 24) comprising only D amino acids (SEQ ID NO: 111, “IKD15800”, and SEQ ID NO: 129, “IKD14800”, respectively), in the presence and absence of anti-CD40L blocking antibody for 24 hours. Supernatants were assessed for IL-12p70 levels by ELISA.
The ability of Lck activating polypeptides to alter IL-12 (IL-12p70) secretion was examined relative to no peptide. In brief, PBMCs were cultured together with anti-CD3 (1 ug/ml) and the Lck activating polypeptide RSKAKNPLY-RRRRRRRRR (SEQ ID NO: 24) or RVKVKVVVV-RRRRRRRRR (SEQ ID NO: 58) for 24 or 72 hours. Supernatants were assessed for IL-12p70 levels by ELISA.

[6] = tested on: isolated CD4+ T cells; assay: IL-21R (CD360) expression in stimulated CD4+ T cell assay; type: cell-based, human; details: anti-CD3 anti-CD28 Dynabeads; data not shown
Procedure: The effect of Lck activating polypeptides on IL-21R (CD360) expression on CD4+ T cells in a stimulated CD4+ T cell assay was examined. In brief, Isolated CD4+ T cells were stimulated with anti-CD3 anti-CD28 Dynabeads™ and cultured together with the Lck activating polypeptides RRRRRRRRR (SEQ ID NO: 6) and RSKAKNPLY-RRRRRRRRR (SEQ ID NO: 24), after which cells were assessed for IL-21R expression by flow cytometry.

[7] = tested on: human PBMCs; assay: IFN-γ secretion by anti-CD3 stimulated PBMCs; type: cell-based; details: 48 hours; data not shown
Procedure: The ability of Lck activating polypeptides to alter IFN-γ secretion by human PBMCs was examined. In brief, anti-CD3 stimulated PBMCs were cultured together with the Lck activating polypeptides RRRRRRRRR (SEQ ID NO: 6), RVKVKVVVV-RRRRRRRRR (SEQ ID NO: 58) and RSKAKNPLY-RRRRRRRRR (SEQ ID NO: 24) for 48 hours after which supernatants were collected and assessed for IFN-γ by ELISA.

[8] = tested on: isolated human CD4+ T cells; assay: IFN-γ secretion in stimulated CD4+ T cell assay; type: cell-based; details: anti-CD3 anti-CD28 Dynabeads, 24 hours
Procedure: (§2) The ability of Lck activating polypeptides to alter IFN-γ secretion by isolated human CD4+ T cells in a stimulated CD4+ T cell assay was also examined. In brief, Isolated CD4+ T cells were stimulated with anti-CD3 anti-CD28 Dynabeads™ and cultured together with the Lck activating polypeptides RRRRRRRRR (SEQ ID NO: 6, IK00900) and RSKAKNPLY-RRRRRRRRR (SEQ ID NO: 24, IK14800) for 24 hours after which supernatants were assessed for IFN-γ by ELISA.
as §2, with “polypeptides comprising D amino acids” for “polypeptides”, “polypeptide” for “polypeptides RRRRRRRRR (SEQ ID NO: 6, IK00900) and”, “IK14800), or the Lck activating polypeptide RSKAKNPLY-RRRRRRRRR (SEQ ID NO: 24) comprising only D amino acids (SEQ ID NO: 129, IKD14800),” for “IK14800)”

[9] = tested on: isolated human CD8+ T cells; assay: IFN-γ secretion in stimulated CD8+ T cell assay; type: cell-based; details: anti-CD3 anti-CD28 Dynabeads, 24 hours
Procedure: as §2, with “CD8+” for “CD4+”, “was” for “was also”
In brief, Isolated CD8+ T cells were stimulated with anti-CD3 anti-CD28 Dynabeads™ and cultured together with the Lck activating polypeptide RSKAKNPLY-RRRRRRRRR (SEQ ID NO: 24), comprising only D amino acids (SEQ ID NO: 129, IKD14800), for 24 hours after which supernatants were assessed for IFN-γ by ELISA.

[10] = tested on: CD4+ T cells; assay: IL-21 production by CD4+ T cells; type: cell-based; details: anti-CD3 anti-CD28, 48 hr; detected in one donor only
Procedure: In brief, CD4+ T cells were isolated and cultured in the presence of anti-CD3 anti-CD28 stimulation and RSKAKNPLY-RRRRRRRRR (SEQ ID NO: 24) for 24 hr or 48 hr. At the end of culture, supernatants were assessed for IL-21 by ELISA.

## HHHHH-RSKAKNPLY-RRRRRRRRR (HHHHHRSKAKNPLYRRRRRRRRR) [IK11480]
[1]
  IL-2R alpha (CD25) expression: increased

## rskaknply ([dR][dS][dK][dA][dK][dN][dP][dL][dY]) [IKD94000]
[2]
  IL-12 secretion relative to control: increase IL-12 secretion

## RRRRRRRRR [IK00900]
[3]
  IL-2 secretion relative to control: induces IL-2 secretion
[4]
  IL-2 secretion relative to control: induce IL-2 secretion
[2]
  IL-12 secretion relative to control: induced IL-12 secretion
[5]
  IL-12 (IL-12p70) secretion relative to cultures with anti-CD40L blocking antibody: induced IL-12 secretion
[6]
  IL-21R expression: do not increase IL-21R expression
[7]
  IFN-γ secretion relative to no peptide control: induce IFN-γ secretion
[8]
  IFN-γ secretion relative to no peptide control: induced IFN-γ secretion
[9]
  IFN-γ secretion relative to no peptide control: induced IFN-γ secretion

## RSKAKNPLY-RRRRRRRRR-HHHHHHHHHHHH (RSKAKNPLYRRRRRRRRRHHHHHHHHHHHH) [IK14820]
[1]
  IL-2R alpha (CD25) expression: increased

## RSKAKNPLY-RRRRRRRRRR (RSKAKNPLYRRRRRRRRRR) [IK14900]
[1]
  IL-2R alpha (CD25) expression: increased

## IL-6: control in FIG. 28 showing boost to IL-21 secretion
[10]
  IL-21 production: boost to IL-21 secretion
